Measurements: PubChem BioAssay AID1845198 (Molecular Pharmacology Branch, DTP, NCI, 2023)
Values joined by “and” are separate entries in the source; they are usually repeats but may differ in a detail not shown here. Identical values can stand only once.

Tested on: 425362-245-T-J1 tumor spheroids, viability % test/control
Experiment: Anticancer human tumor 425362-245-T-J1 patient-derived melanoma cell line growth inhibition
Details: spheroids with HUVEC and MSC; for viability, T/C: stronger effect = lower value
Outline: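 Complex tumor spheroids combined malignant cells with endothelial cells and mesenchymal stem cells. DNA-damaging drugs and DNA repair inhibitors were tested alone and in combination, at half-log dilutions down from clinical Cmax (top 10 microM if Cmax unknown), 0.25% DMSO final.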

[1] = curve of first compound, second compound 30 pM
[2] = curve of first compound, second compound 94.9 pM
[3] = curve of first compound, second compound 0.0003 µM
[4] = curve of first compound, second compound 0.000949 µM
[5] = curve of first compound, second compound 0.003 µM
[6] = second compound 30 pM, first compound 0.0316 µM
[7] = second compound 30 pM, first compound 0.1 µM
[8] = second compound 30 pM, first compound 0.316 µM
[9] = second compound 30 pM, first compound 1 µM
[10] = second compound 30 pM, first compound 3.16 µM
[11] = second compound 30 pM, first compound 10 µM
[12] = second compound 94.9 pM, first compound 0.0316 µM
[13] = second compound 94.9 pM, first compound 0.1 µM
[14] = second compound 94.9 pM, first compound 0.316 µM
[15] = second compound 94.9 pM, first compound 1 µM
[16] = second compound 94.9 pM, first compound 3.16 µM
[17] = second compound 94.9 pM, first compound 10 µM
[18] = second compound 0.0003 µM, first compound 0.0316 µM
[19] = second compound 0.0003 µM, first compound 0.1 µM
[20] = second compound 0.0003 µM, first compound 0.316 µM
[21] = second compound 0.0003 µM, first compound 1 µM
[22] = second compound 0.0003 µM, first compound 3.16 µM
[23] = second compound 0.0003 µM, first compound 10 µM
[24] = second compound 0.000949 µM, first compound 0.0316 µM
[25] = second compound 0.000949 µM, first compound 0.1 µM
[26] = second compound 0.000949 µM, first compound 0.316 µM
[27] = second compound 0.000949 µM, first compound 1 µM
[28] = second compound 0.000949 µM, first compound 3.16 µM
[29] = second compound 0.000949 µM, first compound 10 µM
[30] = second compound 0.003 µM, first compound 0.0316 µM
[31] = second compound 0.003 µM, first compound 0.1 µM
[32] = second compound 0.003 µM, first compound 0.316 µM
[33] = second compound 0.003 µM, first compound 1 µM
[34] = second compound 0.003 µM, first compound 3.16 µM
[35] = second compound 0.003 µM, first compound 10 µM
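Also: spheroids exposed to agents for 7 days.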

CNCc1ccc(-c2cc(-c3nc(-c4ccc(S(=O)(=O)C(C)C)cc4)cnc3N)on2)cc1 + Cn1nnc2c(C(N)=O)ncn2c1=O
IC50 (curve of first compound, second compound 1 µM): 0.0822 µM | IC50 (curve of first compound, second compound 3.16 µM): 0.142 µM | IC50 (curve of first compound, second compound 10 µM): 0.12 µM | IC50 (curve of first compound, second compound 31.6 µM): 0.109 µM | IC50 (curve of first compound, second compound 100 µM): 0.0637 µM | viability, T/C (second compound 1 µM, first compound 0.00949 µM): 103% | viability, T/C (second compound 1 µM, first compound 0.03 µM): 89.2% | viability, T/C (second compound 1 µM, first compound 0.0949 µM): 45.2% | viability, T/C (second compound 1 µM, first compound 0.3 µM): 6.29% | viability, T/C (second compound 1 µM, first compound 0.949 µM): 3.41% | viability, T/C (second compound 1 µM, first compound 3 µM): 0.13% | viability, T/C (second compound 3.16 µM, first compound 0.00949 µM): 99.2% | viability, T/C (second compound 3.16 µM, first compound 0.03 µM): 93.1% | viability, T/C (second compound 3.16 µM, first compound 0.0949 µM): 72.2% | viability, T/C (second compound 3.16 µM, first compound 0.3 µM): 9.15% | viability, T/C (second compound 3.16 µM, first compound 0.949 µM): 3.94% | viability, T/C (second compound 3.16 µM, first compound 3 µM): 0.13% | viability, T/C (second compound 10 µM, first compound 0.00949 µM): 111% | viability, T/C (second compound 10 µM, first compound 0.03 µM): 101% | viability, T/C (second compound 10 µM, first compound 0.0949 µM): 61% | viability, T/C (second compound 10 µM, first compound 0.3 µM): 9.28% | viability, T/C (second compound 10 µM, first compound 0.949 µM): 2.96% | viability, T/C (second compound 10 µM, first compound 3 µM): 0.12% | viability, T/C (second compound 31.6 µM, first compound 0.00949 µM): 95.4% | viability, T/C (second compound 31.6 µM, first compound 0.03 µM): 105% | viability, T/C (second compound 31.6 µM, first compound 0.0949 µM): 56.2% | viability, T/C (second compound 31.6 µM, first compound 0.3 µM): 7.24% | viability, T/C (second compound 31.6 µM, first compound 0.949 µM): 2.97% | viability, T/C (second compound 31.6 µM, first compound 3 µM): 0.11% | viability, T/C (second compound 100 µM, first compound 0.00949 µM): 92.7% | viability, T/C (second compound 100 µM, first compound 0.03 µM): 81.9% | viability, T/C (second compound 100 µM, first compound 0.0949 µM): 33.1% | viability, T/C (second compound 100 µM, first compound 0.3 µM): 4.28% | viability, T/C (second compound 100 µM, first compound 0.949 µM): 4.13% | viability, T/C (second compound 100 µM, first compound 3 µM): 0.16%

CC1COCCN1c1cc(-c2ccnn2C)c2ccnc(-c3ccn[nH]3)c2n1 (configuration not stated) + COc1cc2c(cc1O)CCNC21CSC2c3c(OC(C)=O)c(C)c4c(c3C(COC1=O)N1C(O)C3Cc5cc(C)c(OC)c(O)c5C(C21)N3C)OCO4
IC50 [1]: < 0.0316 µM | IC50 [2]: < 0.0316 µM | IC50 [3]: < 0.0316 µM | IC50 [4]: < 0.0316 µM | IC50 [5]: < 0.0316 µM | viability, T/C [6]: 31.8% | viability, T/C [7]: 7.92% | viability, T/C [8]: 5.31% | viability, T/C [9]: 5.63% | viability, T/C [10]: 6.73% | viability, T/C [11]: 7.04% | viability, T/C [12]: 17.9% | viability, T/C [13]: 5% | viability, T/C [14]: 4.08% | viability, T/C [15]: 3.64% | viability, T/C [16]: 5.29% | viability, T/C [17]: 5.35% | viability, T/C [18]: 2.05% | viability, T/C [19]: 1.46% | viability, T/C [20]: 1.47% | viability, T/C [21]: 1.57% | viability, T/C [22]: 2.68% | viability, T/C [23]: 2.88% | viability, T/C [24]: 0.27% | viability, T/C [25]: 0.17% | viability, T/C [26]: 0.15% | viability, T/C [27]: 0.08% | viability, T/C [28]: 0.09% | viability, T/C [29]: 0.58% | viability, T/C [30]: 0.58% | viability, T/C [31]: 0.6% | viability, T/C [32]: 0.55% | viability, T/C [33]: 0.47% | viability, T/C [34]: 0.47% | viability, T/C [35]: 0.86%

COc1ccc([C@@H](O)c2cc(-c3ncnc4cc(N5CCOCC5)ccc34)c(F)cc2Cl)nn1 + COc1cc2c(cc1O)CCNC21CSC2c3c(OC(C)=O)c(C)c4c(c3C(COC1=O)N1C(O)C3Cc5cc(C)c(OC)c(O)c5C(C21)N3C)OCO4
IC50 [1]: 1.49 µM | IC50 [2]: 0.889 µM | IC50 [3]: < 0.0316 µM | IC50 [4]: < 0.0316 µM | IC50 [5]: < 0.0316 µM | viability, T/C [6]: 94.5% | viability, T/C [7]: 108% | viability, T/C [8]: 93.6% | viability, T/C [9]: 58.5% | viability, T/C [10]: 32.7% | viability, T/C [11]: 15.9% | viability, T/C [12]: 91% | viability, T/C [13]: 91.2% | viability, T/C [14]: 84.3% | viability, T/C [15]: 44.4% | viability, T/C [16]: 26.5% | viability, T/C [17]: 14.2% | viability, T/C [18]: 49.2% | viability, T/C [19]: 42.5% | viability, T/C [20]: 36.6% | viability, T/C [21]: 3.35% | viability, T/C [22]: 0.22% | viability, T/C [23]: 0.19% | viability, T/C [24]: 0.4% | viability, T/C [25]: 0.23% | viability, T/C [26]: 0.14% | viability, T/C [27]: 0.08% | viability, T/C [28]: 0.05% | viability, T/C [29]: 0.22% | viability, T/C [30]: 0.28% | viability, T/C [31]: 0.35% | viability, T/C [32]: 0.35% | viability, T/C [33]: 0.33% | viability, T/C [34]: 0.3% | viability, T/C [35]: 0.39%

COc1cc(C)[nH]c(=O)c1CN1CCc2c(Cl)cc(C(OC)C3COC3)c(Cl)c2C1=O (configuration not stated)
viability, T/C (compound 0.0316 µM): 107% and 103% and 97% | viability, T/C (compound 0.1 µM): 103% (2×) and 108% | viability, T/C (compound 0.316 µM): 106% and 97.8% and 99.9% | viability, T/C (compound 1 µM): 95.9% and 103% and 98.4% | viability, T/C (compound 3.16 µM): 97.4% and 104% and 96.1% | viability, T/C (compound 10 µM): 89.9% and 92.6% and 88.8% | IC50 (curve of compound): > 10 µM
